Measured values reported in patent US7271171B2, “Adenosine A3 receptor modulators” (King Pharmaceuticals Research and Development, Inc., priority 1998, dated 2007).
Where two headings read alike, the source gives them in different places.

Assays:
NB4 cell membranes = test: [125I]-ABMECA binding on tumor cell line membranes; settings: NB4, 0.5 nM radioligand
Protocol: (§1) A series of binding experiments were performed on various tumor cell lines, using 0.5 nM [^125I]-ABMECA, with unspecific binding determined in the presence of 50 μM R-PIA or 200 μM NECA, on cell membranes of the cell lines. Specific binding was determined by substracting unspecific binding from total binding. The cell lines were the HL 60, NB4, SKN-MC, SKN-Be2C, SKN-SH and JURKAT cell lines.

SKN-Be2C cell membranes = test: [125I]-ABMECA binding on tumor cell line membranes; settings: 0.5 nM radioligand
Protocol: as §1

SKN-MC cell membranes = test: [125I]-ABMECA binding on tumor cell line membranes; settings: 0.5 nM radioligand
Protocol: as §1

SKN-SH cell membranes = test: [125I]-ABMECA binding on tumor cell line membranes; settings: 0.5 nM radioligand
Protocol: as §1

HL 60 cell membranes = test: [125I]-ABMECA binding on tumor cell line membranes; parameters: species or system human; settings: HL 60, 0.5 nM radioligand
Protocol: as §1

JURKAT cell membranes = test: [125I]-ABMECA binding on tumor cell line membranes; parameters: species or system human; settings: 0.5 nM radioligand
Protocol: as §1

[1] = target: T1, human A3 receptors expressed in HEK 293 cells (Homo sapiens, UniProt P0DMS8); settings: saturation curve, FIG. 1, n=3
T1 sequence (P0DMS8 1-318): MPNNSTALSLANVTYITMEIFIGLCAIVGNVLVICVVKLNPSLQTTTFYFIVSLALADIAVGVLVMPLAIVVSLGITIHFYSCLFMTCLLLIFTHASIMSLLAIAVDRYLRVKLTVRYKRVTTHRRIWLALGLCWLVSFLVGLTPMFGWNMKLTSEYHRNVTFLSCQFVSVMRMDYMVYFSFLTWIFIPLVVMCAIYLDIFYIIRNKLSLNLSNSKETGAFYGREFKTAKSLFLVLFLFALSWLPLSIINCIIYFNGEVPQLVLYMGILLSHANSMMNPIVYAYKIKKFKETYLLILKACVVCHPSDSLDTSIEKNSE

[2] = target: T2, A3 receptor in Jurkat cell membranes (Homo sapiens, UniProt P0DMS8)
T2 sequence (P0DMS8 1-318): T1 sequence (P0DMS8 1-318)

rA1 adenosine receptor = target: T3, rA1 adenosine receptor (Rattus norvegicus, UniProt P25099); settings: values taken from Kim et al., J. Med. Chem. 1996; cited from earlier work
T3 construct: membranes of rat brain (150-200 μg- of protein/assay); from tissue; host or cells: whole brain of male Wistar rats
T3 sequence (P25099 1-326): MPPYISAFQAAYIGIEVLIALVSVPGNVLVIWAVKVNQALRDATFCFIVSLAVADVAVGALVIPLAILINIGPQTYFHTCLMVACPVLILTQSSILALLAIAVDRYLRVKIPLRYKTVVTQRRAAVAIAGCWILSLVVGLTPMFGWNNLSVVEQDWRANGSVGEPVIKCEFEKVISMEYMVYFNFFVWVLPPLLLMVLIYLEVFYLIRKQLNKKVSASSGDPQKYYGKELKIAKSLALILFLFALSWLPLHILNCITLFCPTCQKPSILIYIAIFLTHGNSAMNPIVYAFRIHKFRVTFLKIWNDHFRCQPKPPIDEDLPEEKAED

rA2A adenosine receptor = target: T4, rA2A adenosine receptor (Rattus norvegicus, UniProt P30543); settings: values taken from Kim et al., J. Med. Chem. 1996; cited from earlier work
T4 construct: membranes of rat striatum (80-100 μmg of protein/assay); from tissue; host or cells: striatum of male Wistar rats
T4 sequence (P30543 whole entry): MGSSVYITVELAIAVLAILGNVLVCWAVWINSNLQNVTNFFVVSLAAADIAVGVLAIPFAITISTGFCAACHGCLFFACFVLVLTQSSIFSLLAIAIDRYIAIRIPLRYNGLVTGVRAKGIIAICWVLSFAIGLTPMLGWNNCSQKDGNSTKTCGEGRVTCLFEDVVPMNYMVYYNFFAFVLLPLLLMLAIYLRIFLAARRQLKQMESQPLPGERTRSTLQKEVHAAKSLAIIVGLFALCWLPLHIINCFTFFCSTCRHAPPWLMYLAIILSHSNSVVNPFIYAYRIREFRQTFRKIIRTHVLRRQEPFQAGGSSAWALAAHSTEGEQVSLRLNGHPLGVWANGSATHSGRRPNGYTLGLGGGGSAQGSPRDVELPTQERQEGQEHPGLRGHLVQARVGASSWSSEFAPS

SMILES	Percent Specific Binding (NB4 cell membranes)	Specific Binding (cpm) (NB4 cell membranes)	Percent Specific Binding (SKN-Be2C cell membranes)	Specific Binding (cpm) (SKN-Be2C cell membranes)	Percent Specific Binding (SKN-MC cell membranes)	Specific Binding (cpm) (SKN-MC cell membranes)	Percent Specific Binding (SKN-SH cell membranes)	Specific Binding (cpm) (SKN-SH cell membranes)	Percent Specific Binding (HL 60 cell membranes)	Specific Binding (cpm) (HL 60 cell membranes)	Percent Specific Binding (JURKAT cell membranes)	Specific Binding (cpm) (JURKAT cell membranes)	Bmax value [1]	Bmax (fmol/mg protein) / density of A3 receptor detected ([2]; FIG. 3)	Bmax (fmol/mg protein) / density of A3 receptor detected ([2]; FIG. 3, listed as [^125I]-ABMECA)	Ki (rA1 adenosine receptor)	Ki (rA2A adenosine receptor)
CNC(=O)[C@H]1O[C@@H](n2cnc3c(NCc4ccc(N)c([125I])c4)ncnc32)[C@H](O)[C@@H]1O [[^125I]AB-MECA, [^125I]N^6-(4-amino-3-iodobenzyl)adenosine-5′N-methyluronamide]	19%	637 cpm	24%	1415 cpm	17%	1308 cpm	3%	91 cpm	20%	693 cpm	38%	2846 cpm	62±1 fmol/mg protein	approximately 300 fmol/mg protein	290 fmol/mg protein		
O=C(Cc1ccccc1)Nc1nc2ccc(Cl)cc2c2nc(-c3ccco3)nn12 [MRS 1220]																305 ± 51 nM	52 ± 8.8 nM
